Results from patent publication US20030219894A1, “Induction of insulin-producing cells” (JCR Pharmaceuticals Co., Ltd., priority 2002, published 2003).

Key:
Assay type in all cases: cell-based
mouse fetal hepatocytes [1] = assay: RT-PCR analysis of insulin 1 and 2 gene expression in cultured fetal hepatocytes with medium supplements; details: for induction of insulin 1 and 2 gene expression: supplement separately added to DMEM/F12 containing 10% FBS
Description: For preparing fetal hepatocytes, the liver of fetal ICR mice (embryonic day 13.5) was excised and treated with 0.1% trypsin-phosphate-buffered saline for 5 min at 37° C. A culture medium solution then was added, and the mixture was filtered through a nylon membrane (#200). The cell suspension thus obtained was centrifuged at 50 g for 5 min. The cell pellet was suspended in a medium consisting of 1:1 DMEM/F12 (Sigma D6421) supplemented with 10% fetal bovine serum, L-glutamine (2 mmol/L), β-mercaptoethanol (β-ME), (50 μmol/L), penicillin (100,000 U/L) and streptomycin (100 mg/L). The formula of the 1:1 DMEM/F12 (Dulbecco's Modified Eagle's Medium/Ham's Nutrient Mixture F-12: Sigma D6421) was as follows (in g/L): Ca2Cl2/2H2O (0.1545), CuSO4/5H2O (0.0000013), Fe(NO3)3/9H2O (0.00005). […]
Both insulin 1 and 2 genes were clearly expressed under the culture conditions used, as determined by RT-PCR analysis. […] Each of these supplements was separately added to the DMEM/F12 containing 10% FBS, and effects on insulin expression was evaluated in thus formed different media. […]

[2] = system: mouse embryonic fibroblasts (MEF); assay: RT-PCR analysis of insulin 1 and 2 gene expression in mouse embryonic fibroblasts (negative control cells); details: MEF from fetal limbs (ED13.5), medium supplemented with nicotinamide; FIG. 1
Description: (§1) Both insulin 1 and 2 genes were clearly expressed under the culture conditions used, as determined by RT-PCR analysis. It was assumed that some of the supplements (nicotinamide, EGF, insulin or dexamethasone) to the culture medium were responsible for the expression of the insulin genes in the hepatocytes. Each of these supplements was separately added to the DMEM/F12 containing 10% FBS, and effects on insulin expression was evaluated in thus formed different media. When cultured in a medium not supplemented with nicotinamide (containing just 0.0165 mmol/L of nicotinamide), the mouse fetal hepatocytes either din not express the insulin 1 or 2 gene at all, or did expressed them but only very poorly (FIG. 1). […] As a negative control, mouse embryonic fibroblasts (MEF) were prepared from fetal limbs (ED13.5), and cultured under the same conditions. […] Immunohistochemistry using anti-insulin antibody was employed to confirm that a high-concentration of nicotinamide was requited for the differentiation of mouse fetal hepatocytes into insulin-producing cells.

mouse fetal hepatocytes [3] = assay: Immunohistochemistry using anti-insulin antibody; details: medium supplemented with nicotinamide; FIG. 3 vs FIG. 2
Source text: Fetal hepatocytes were fixed with 4% paraformaldehyde in 0.1 M phosphate buffer and stained by direct immunoperoxidase method using a guinea pig anti-pig insulin antibody (Zymed Laboratories, South San Francisco, Calif.) and a peroxidase-labeled pig anti-guinea pig IgG (DAKO Japan, Kyoto).
as §1

Row | Molecule | expression of the insulin 1 and 2 genes (mouse fetal hepatocytes [1]; medium supplemented with 10 mmol/L of nicotinamide, DMEM/F12 containing 10% FBS, FIG. 1) | expression of the insulin 1 and 2 genes in MEF [2] | generation of insulin-positive cells (anti-insulin immunostaining) (mouse fetal hepatocytes [3]) | induction of insulin 1 and 2 gene expression (mouse fetal hepatocytes [1])
1 | NC(=O)c1cccnc1 [nicotinamide] | markedly induced | expressed | led to generation of insulin-positive cells | –
2 | EGF: epidermal growth factor (EGF), culture medium supplement (NSDSECPLSHDGYCLHDGVCMYIEALDKYACNCVVGYIGERCQYRDLKWWELR; Epidermal growth factor; UniProt P01133 971-1023, looked up) | – | – | – | either had no effect or had only a marginal effect
3 | insulin: insulin, culture medium supplement (172 nmol/L) | – | – | – | either had no effect or had only a marginal effect
